Data reported in patent publication US4870074A, “Substituted benzamide derivatives, for enhancing gastrointestinal motility” (priority 1986, dated 1989).

Experiments:
gastric emptying = test: Test 1: gastric emptying enhancing activity (phenol red test meal); type: in vivo, Male Wistar rats; settings: for change in vivo at 2 mg/kg / change in vivo at 0.5 mg/kg / change in vivo at 5 mg/kg / change in vivo at 10 mg/kg / change in vivo at 0.2 mg/kg: po, 0.25 h, 60 min before test meal, rat, read-out: Gastric emptying enhancing activity, Increase (emptying rate vs control); for change in vivo at 2 mg/kg: 2.0 mg/kg p.o.; for change in vivo at 0.5 mg/kg: 0.5 mg/kg p.o.; for change in vivo at 5 mg/kg: 5.0 mg/kg p.o.; for change in vivo at 10 mg/kg: 10.0 mg/kg p.o.; for change in vivo at 0.2 mg/kg: 0.2 mg/kg p.o.
Procedure: The test was carried out according to the method of Scarpignato et al. [cf. Arch. int. Pharmacodyn., 246, 286-294 (1980)].
Male Wistar rats, weighing 130-150 g, were fasted for 18 hours before experimentation, and 1.5 ml of a test meal (phenol red 0.05% in a 1.5% aqueous methylcellulose solution) was given by gastric tube. Fifteen minutes after administration of the meal the stomach was removed and the amount of phenol red remaining in the stomach was measured.
The test compounds, dissolved or suspended in a 0.5% tragacanth solution, were orally administered 60 minutes before administration of the test meal. The rate of gastric emptying was calculated according to the amount of phenol red remaining in the stomach, and the activity of the test compounds was expressed in terms of increase in the emptying rate from the control. The number of animals used was 5 for the control and each dose of metoclopramide hydrochloride monohydrate and 4 for each dose of the other test compounds.

central nervous system = test: Test 3: effect on the central nervous system (CNS effect), Irwin observation; settings: 100 mg/kg, p.o., mouse, 2 hours observation
Procedure: Male ddY mice, weighing 18-25 g, were used in groups of 3 animals each. […] Psychopharmacologia, 13, 222-227 (1968)], comprehensive observation of behavioral and physiologic states were carried out for 2 hours after the oral treatment with 100 mg/kg of the test compound, dissolved or suspended in a 0.5% tragacanth solution. Liability of the test compounds to the central nervous system effect was expressed with the following marks, according to the total sum of potencies for the individually analyzed effects, such as catalepsy, ptosis, hypolocomotin, etc.

COc1cc(N)c(Cl)cc1C(=O)NCC1CN(Cc2ccccc2)CCO1 (centres unmarked) [18(2), 4-amino-N-[(4-benzyl-2-morpholinyl)methyl]-5-chloro-2-methoxybenzamide]
change in vivo at 2 mg/kg (gastric emptying): 39.3%
CNS effect (central nervous system): -

CCOc1cc(N)c(Cl)cc1C(=O)NCC1CN(Cc2ccccc2)CCO1 (centres unmarked) [63(1), 4-amino-N-[(4-benzyl-2-morpholinyl)methyl]-5-chloro-2-ethoxybenzamide]
change in vivo at 0.5 mg/kg (gastric emptying): 33.9%
change in vivo at 2 mg/kg (gastric emptying): 54.4%
CNS effect (central nervous system): -

CCOc1cc(N)c(Cl)cc1C(=O)NCC1CN(Cc2ccccc2Cl)CCO1 (centres unmarked) [66(1)]
change in vivo at 2 mg/kg (gastric emptying): 41.3%
CNS effect (central nervous system): -

CCOc1cc(N)c(Cl)cc1C(=O)NCC1CN(Cc2ccc(Cl)cc2)CCO1 (centres unmarked) [68(1)]
change in vivo at 2 mg/kg (gastric emptying): 62.7%
CNS effect (central nervous system): -

CCOc1cc(N)c(Cl)cc1C(=O)NCC1CN(Cc2cccnc2)CCO1 (centres unmarked) [80(1)]
change in vivo at 2 mg/kg (gastric emptying): 65.6%
CNS effect (central nervous system): -

CCN(CC)CCNC(=O)c1cc(Cl)c(N)cc1OC [A, 4-amino-5-chloro-N-[(2-diethylamino)ethyl]-2-methoxybenzamide, reference compound]
change in vivo at 2 mg/kg (gastric emptying): 20.7%
change in vivo at 5 mg/kg (gastric emptying): 25.7%
change in vivo at 10 mg/kg (gastric emptying): 30.7%

CCN1CCOC(CNC(=O)c2ccccc2OC)C1.O=C(O)/C=C/C(=O)O (centres unmarked) [Compound B, N-[(4-Ethyl-2-morpholinyl)methyl]-2-methoxybenzamide fumarate, reference compound]
gastric emptying enhancing effect (in words) (gastric emptying; even at a dose of 10.0 mg/kg p.o.): did not show any effect
change in vivo at 2 mg/kg (gastric emptying): 3.8%
change in vivo at 5 mg/kg (gastric emptying): -1.9%
change in vivo at 10 mg/kg (gastric emptying): 2.1%

CCOc1cc(N)c(Cl)cc1C(=O)NCC1CN(Cc2ccc(F)cc2)CCO1 (centres unmarked) [Example 1(1), 4-amino-5-chloro-2-ethoxy-N-[[4-(4-fluorobenzyl)-2-morpholinyl]methyl]benzamide]
change in vivo at 0.2 mg/kg (gastric emptying): 39.5%
change in vivo at 2 mg/kg (gastric emptying): 49.8%
CNS effect (central nervous system): -

COc1cc(N)c(Cl)cc1C(=O)NCC1CN(Cc2ccc(C#N)cc2)CCO1 (centres unmarked) [Example 6, 4-amino-5-chloro-N-[[4-(4-cyanobenzyl)-2-morpholinyl]methyl]-2-methoxybenzamide]
change in vivo at 2 mg/kg (gastric emptying): 49.2%
CNS effect (central nervous system): -

CCOc1cc(NC(C)=O)c(Cl)cc1C(=O)NCC1CN(Cc2ccc(F)cc2)CCO1 (centres unmarked) [Example 7, 4-acetylamino-5-chloro-2-ethoxy-N-[[4-(4-fluorobenzyl)-2-morpholinyl]methyl]benzamide]
change in vivo at 2 mg/kg (gastric emptying): 74%

CCOc1cc(N)c(Cl)cc1C(=O)NCCC1CN(Cc2ccccc2)CCO1 (centres unmarked) [Example 8, 4-amino-N-[2-(4-benzyl-2-morpholinyl)ethyl]-5-chloro-2-ethoxybenzamide]
change in vivo at 2 mg/kg (gastric emptying): 44.9%
CNS effect (central nervous system): -

CCOc1cc(N)c(Cl)cc1C(=O)NCC1CN(Cc2ccccc2Cl)CC(C)O1 (centres unmarked) [Example 14, 4-amino-5-chloro-N-[[4-(2-chlorobenzyl)-6-methyl-2-morpholinyl]methyl]-2-ethoxybenzamide]
change in vivo at 2 mg/kg (gastric emptying): 47.5%

CCOc1cc(N)c(Cl)cc1C(=O)NCC1CN(Cc2ccccc2)CCCO1 (centres unmarked) [Example 16, 4-amino-N-[(4-benzyl-hexahydro-1,4-oxazepin-2-yl)methyl]-5-chloro-2-ethoxybenzamide]
change in vivo at 2 mg/kg (gastric emptying): 47.3%

COc1cc(N)c(Cl)cc1C(=O)NCC1CN(Cc2c(F)c(F)c(F)c(F)c2F)CCO1 (centres unmarked) [Example 25]
change in vivo at 2 mg/kg (gastric emptying): 39.1%

COc1cc(N)c(Cl)cc1C(=O)NCC1CN(Cc2cccc(C(F)(F)F)c2)CCO1 (centres unmarked) [Example 28]
change in vivo at 2 mg/kg (gastric emptying): 42.8%

COc1cc(N)c(Cl)cc1C(=O)NCC1CN(Cc2cccc(C#N)c2)CCO1 (centres unmarked) [Example 33]
change in vivo at 2 mg/kg (gastric emptying): 42.3%

COc1cc(N)c(Cl)cc1C(=O)NCC1CN(C(C)c2ccccc2)CCO1 (centres unmarked) [Example 37]
change in vivo at 2 mg/kg (gastric emptying): 42.2%

COc1cc(N)c(Cl)cc1C(=O)NCC1CN(CCCOc2ccc(Cl)cc2)CCO1 (centres unmarked) [Example 52]
change in vivo at 2 mg/kg (gastric emptying): 52.5%

CCOc1cc(N)c(Cl)cc1C(=O)NCC1CN(Cc2ccccc2F)CCO1 (centres unmarked) [Example 64]
change in vivo at 2 mg/kg (gastric emptying): 59.9%

CCOc1cc(N)c(Cl)cc1C(=O)NCC1CN(Cc2cccc(F)c2)CCO1 (centres unmarked) [Example 65]
change in vivo at 2 mg/kg (gastric emptying): 54.1%

CCOc1cc(N)c(Cl)cc1C(=O)NCC1CN(Cc2cccc(Cl)c2)CCO1 (centres unmarked) [Example 67]
change in vivo at 2 mg/kg (gastric emptying): 57.5%
CNS effect (central nervous system): -

CCOc1cc(N)c(Cl)cc1C(=O)NCC1CN(Cc2cccc(C(F)(F)F)c2)CCO1 (centres unmarked) [Example 70]
change in vivo at 2 mg/kg (gastric emptying): 57.8%
CNS effect (central nervous system): -

CCOc1cc(N)c(Cl)cc1C(=O)NCC1CN(Cc2ccc(C#N)cc2)CCO1 (centres unmarked) [Example 73]
change in vivo at 0.5 mg/kg (gastric emptying): 44.2%
change in vivo at 2 mg/kg (gastric emptying): 46.2%

CCOc1cc(N)c(Cl)cc1C(=O)NCC1CN(Cc2ccc(Cl)cc2[N+](=O)[O-])CCO1 (centres unmarked) [Example 74]
change in vivo at 2 mg/kg (gastric emptying): 46.7%
CNS effect (central nervous system): -

CCOc1cc(N)c(Cl)cc1C(=O)NCC1CN(CCCCc2ccccc2)CCO1 (centres unmarked) [Example 76]
change in vivo at 2 mg/kg (gastric emptying): 47.1%

CCOc1cc(N)c(Cl)cc1C(=O)NCC1CN(C(C)c2ccccc2)CCO1 (centres unmarked) [Example 77]
change in vivo at 2 mg/kg (gastric emptying): 43.8%

CCOc1cc(N)c(Cl)cc1C(=O)NCC1CN(Cc2ccccn2)CCO1 (centres unmarked) [Example 79]
change in vivo at 2 mg/kg (gastric emptying): 51%

CCOc1cc(N)c(Cl)cc1C(=O)NCC1CN(Cc2ccncc2)CCO1 (centres unmarked) [Example 81]
change in vivo at 2 mg/kg (gastric emptying): 52.9%
CNS effect (central nervous system): -

CCCOc1cc(N)c(Cl)cc1C(=O)NCC1CN(Cc2ccccc2)CCO1 (centres unmarked) [Example 86]
change in vivo at 2 mg/kg (gastric emptying): 55%

CCCCOc1cc(N)c(Cl)cc1C(=O)NCC1CN(Cc2ccccc2)CCO1 (centres unmarked) [Example 88, 4-amino-N-[(4-benzyl-2-morpholinyl)methyl]-2-butoxy-5-chlorobenzamide]
change in vivo at 0.2 mg/kg (gastric emptying): 32.8%
change in vivo at 0.5 mg/kg (gastric emptying): 42.9%
change in vivo at 2 mg/kg (gastric emptying): 53.7%
CNS effect (central nervous system): -

CCCCOc1cc(N)c(Cl)cc1C(=O)NCC1CN(Cc2ccc(F)cc2)CCO1 (centres unmarked) [Example 89]
change in vivo at 2 mg/kg (gastric emptying): 49.9%
CNS effect (central nervous system): +

CCCCOc1cc(N)c(Cl)cc1C(=O)NCC1CN(Cc2ccccc2Cl)CCO1 (centres unmarked) [Example 90]
change in vivo at 2 mg/kg (gastric emptying): 55.4%
CNS effect (central nervous system): -

CC(C)COc1cc(N)c(Cl)cc1C(=O)NCC1CN(Cc2ccccc2)CCO1 (centres unmarked) [Example 91]
change in vivo at 2 mg/kg (gastric emptying): 51.2%
CNS effect (central nervous system): -

CCCCCOc1cc(N)c(Cl)cc1C(=O)NCC1CN(Cc2ccccc2)CCO1 (centres unmarked) [Example 92]
change in vivo at 2 mg/kg (gastric emptying): 41%

CC(C)CCOc1cc(N)c(Cl)cc1C(=O)NCC1CN(Cc2ccccc2)CCO1 (centres unmarked) [Example 93, 4-amino-N-[(4-benzyl-2-morpholinyl)methyl]-5-chloro-2-isopentyloxybenzamide]
change in vivo at 0.5 mg/kg (gastric emptying): 46.9%
change in vivo at 2 mg/kg (gastric emptying): 44.2%
CNS effect (central nervous system): -

CC(C)CCOc1cc(N)c(Cl)cc1C(=O)NCC1CN(Cc2ccc(F)cc2)CCO1 (centres unmarked) [Example 94]
change in vivo at 2 mg/kg (gastric emptying): 52%
CNS effect (central nervous system): -

CC(C)CCOc1cc(N)c(Cl)cc1C(=O)NCC1CN(Cc2ccccc2Cl)CCO1 (centres unmarked) [Example 95]
change in vivo at 0.2 mg/kg (gastric emptying): 34.7%
change in vivo at 2 mg/kg (gastric emptying): 61.6%
CNS effect (central nervous system): -

CCCCCCCOc1cc(N)c(Cl)cc1C(=O)NCC1CN(Cc2ccccc2)CCO1 (centres unmarked) [Example 97]
change in vivo at 2 mg/kg (gastric emptying): 43.8%
CNS effect (central nervous system): -

Nc1cc(OC2CCCC2)c(C(=O)NCC2CN(Cc3ccccc3)CCO2)cc1Cl (centres unmarked) [Example 101]
change in vivo at 2 mg/kg (gastric emptying): 46.4%
CNS effect (central nervous system): -

Nc1cc(OCCCl)c(C(=O)NCC2CN(Cc3ccccc3)CCO2)cc1Cl (centres unmarked) [Example 102]
change in vivo at 2 mg/kg (gastric emptying): 46.8%

CC(=O)COc1cc(N)c(Cl)cc1C(=O)NCC1CN(Cc2ccccc2)CCO1 (centres unmarked) [Example 104]
change in vivo at 2 mg/kg (gastric emptying): 43.8%
CNS effect (central nervous system): -

CC(O)COc1cc(N)c(Cl)cc1C(=O)NCC1CN(Cc2ccccc2)CCO1 (centres unmarked) [Example 105]
change in vivo at 2 mg/kg (gastric emptying): 52%
CNS effect (central nervous system): -

Nc1cc(OCC2CC2)c(C(=O)NCC2CN(Cc3ccccc3)CCO2)cc1Cl (centres unmarked) [Example 111]
change in vivo at 2 mg/kg (gastric emptying): 48.7%

C=CCOc1cc(N)c(Cl)cc1C(=O)NCC1CN(Cc2ccccc2)CCO1 (centres unmarked) [Example 115]
change in vivo at 2 mg/kg (gastric emptying): 45.6%

CC(C)=CCOc1cc(N)c(Cl)cc1C(=O)NCC1CN(Cc2ccccc2)CCO1 (centres unmarked) [Example 116, 4-amino-N-[(4-benzyl-2-morpholinyl)methyl]-5-chloro-2-(3-methyl-2-butenyloxy)benzamide]
change in vivo at 0.5 mg/kg (gastric emptying): 41.4%
change in vivo at 2 mg/kg (gastric emptying): 52.4%
CNS effect (central nervous system): -

C#CCOc1cc(N)c(Cl)cc1C(=O)NCC1CN(Cc2ccccc2)CCO1 (centres unmarked) [Example 120]
change in vivo at 2 mg/kg (gastric emptying): 40.6%

COc1cc(N(C)C)c(Cl)cc1C(=O)NCC1CN(Cc2ccccc2)CCO1 (centres unmarked) [Example 130]
change in vivo at 2 mg/kg (gastric emptying): 51.8%

CCOc1cc(N(C)C)c(Cl)cc1C(=O)NCC1CN(Cc2ccccc2)CCO1 (centres unmarked) [Example 132]
change in vivo at 2 mg/kg (gastric emptying): 50.6%

CCOc1cc(N)c(Cl)cc1C(=O)NCC1C[N+]([O-])(Cc2ccccc2Cl)CCO1 (centres unmarked) [Example 244, 4-amino-5-chloro-N-[[4-(2-chlorobenzyl)-2-morpholinyl]methyl]-2-ethoxybenzamide N-oxide]
change in vivo at 2 mg/kg (gastric emptying): 51.8%
